Key:
[1] = Cl^−/NO3^− ISE assay in POPC:cholesterol (7:3) vesicles; type: biochemical; settings: 0.1 mol% loading, pH 7.2
Description: To further probe other aspects of transmembrane transport mechanism of perenosins, a variety of studies were employed. […] Using the same conditions for sulfate transport, and adding a bicarbonate pulse at 120 s to give a final external bicarbonate concentration of 40 mM, allowed observation of potential Cl^−/HCO3 ^− antiport elicited by 1d and 2–8; no Cl^− efflux was detected, presumably due to the basicity of bicarbonate anion preventing protonation of the imine-N2. Finally, preincorporation of 1d and 2–6 into POPC vesicles followed by performing a similar NMDG-Cl assay, and subsequent dilution of the resulting lipid solution, investigated how perenosins behave in a lipid membrane environment. […] See Supplementary Information for more details of results and experimental details of these assays.
S10. Anion Transport Studies
S10.1. General Procedure for the ISE Assay
Unilamellar vesicles were prepared using previously reported literature procedures7-9. A lipid film of POPC (1-palmitoyl-2-oleoyl-sn-glycero-3-phosphocholine) or POPC:cholesterol (7:3 molar ratio) was prepared from a chloroform solution under reduced pressure and then dried under vacuum for 4 or more hours. The lipid film was rehydrated by vortexing with an internal solution of buffered metal chloride salt (usually 489 mM MCl). The lipid suspension was then subjected to 9 freeze-thaw cycles and left to rest at room temperature for 30 minutes. After this, the suspension was extruded 25 times through a 200 nm polycarbonate membrane resulting in unilamellar vesicles of a mean diameter of 200 nm. […]
The lipid stock was diluted with the external buffer solution to a standard volume (5 mL), to afford a solution with a lipid concentration of 1 mM. The compounds were added as a DMSO solution (10 μL) at the start of the experiment and the resulting chloride efflux was monitored using a chloride selective electrode over 5 minutes. After this time, detergent (50 μL of Triton X-100 (11 w%) in H2O:DMSO (7:1 v/v)) was added to lyse the vesicles and after 7 minutes a final chloride efflux reading was taken. […]

MDA-MB-231 cells = experiment: Annexin-V flow cytometric apoptosis assay; type: cell-based, human
Description: The specific late onset of affecting cell viability induced by perenosins is interesting, and to the best of our knowledge this phenomenon has not been observed for other anion transporters. […] It is known that synthetic transporters can disrupt ion homeostasis in cells and induce cell death via an apoptotic pathway, [22], [32], [63], [64].
S11.3 Apoptosis Evaluation through Annexin-V Assay
MDA-MB-231 cells (1x10^5 cells) were seeded in 6-well plates and, after 24 h, they were treated with […]
Afterwards, cells were detached, centrifuged at 300 g for 5 min and resuspended in 1 ml of 1X PBS-1% FBS. Then, 100 µl of cell suspension were mixed with Annexin-V kit buffer (1:1; Muse Annexin V & Dead Cell Assay, Merck Millipore, Merck KGaA, Darmstadt, Germany). After 20 min incubation at room temperature, cells were examined on the Muse™ Cell Analyzer (Merck Millipore). All the conditions were assessed in three independent experiments. Results are shown as the mean value ± S.D. and representative results are shown in the […]
Figure S154. Flow cytometry of MDA-MB-231 cells treated with IC50 concentrations of compound 2 and 6 for 48 and 72 hours plus 10 µM of compound 6 for 72 h. Axes show Annexin-V binding versus […]
(1 picture or pasted object on this page, not shown here)

SMILES | chloride efflux in POPC:Cholesterol (7:3) vesicles [1] | apoptosis induction (Annexin-V) (MDA-MB-231 cells; at IC50 value, 48 h and 72 h) | apoptosis induction (Annexin-V) (MDA-MB-231 cells; 10 µM)
CCCCCc1cc2cc(C)cc(/N=C/c3[nH]c(C)cc3C)c2[nH]1 [Perenosin 2] | 70% | clearly induces cell death by apoptosis | 
CCCCCc1cc2cc(C)cc(/N=C/c3[nH]c(C)c(CCCCC)c3C)c2[nH]1 [Perenosin 6] |  | slight increase in apoptotic cells | increase in both early and late apoptotic cell populations
CCCCCc1cc(/N=C/c2[nH]c3ccccc3c2C)c2[nH]ccc2c1 [Perenosin 7] | no chloride efflux |  | 
CCCCCc1cc2cc(C)cc(/N=C/c3[nH]c4ccccc4c3C)c2[nH]1 [Perenosin 8] | no chloride efflux |  | 

Reference: paper PMC5570892, “Indole-based perenosins as highly potent HCl transporters and potential anti-cancer agents” (Scientific Reports, 2017)
